The target of test [1] is FGFR3 (Homo sapiens (Human), UniProt P22607). The test is described as follows: FGFR Enzymatic Assay (FRET, peptide phosphorylation), FGFR3. In kind it is biochemical. To be noted: pre-incubated for 4 hours; ATP 140 μM.
In test [2] the target is FGFR4 (Homo sapiens (Human), UniProt P22455). The test is described as follows: FGFR Enzymatic Assay (FRET, peptide phosphorylation), FGFR4.
Test [3] has as its target FGFR1 (Homo sapiens (Human), UniProt P11362). As to the kind of experiment: FGFR Enzymatic Assay (FRET, peptide phosphorylation), FGFR1. To be noted: read-out: FGFR1 IC50; pre-incubated for 4 hours; ATP 210 uM.
For test [4], the target named is FGFR2 (Homo sapiens (Human), UniProt P21802). As to the kind of experiment: FGFR Enzymatic Assay (FRET, peptide phosphorylation), FGFR2. To be noted: read-out: FGFR2 IC50; pre-incubated for 4 hours; ATP 100 uM.
FGFR2, sequence (P21802 22-821): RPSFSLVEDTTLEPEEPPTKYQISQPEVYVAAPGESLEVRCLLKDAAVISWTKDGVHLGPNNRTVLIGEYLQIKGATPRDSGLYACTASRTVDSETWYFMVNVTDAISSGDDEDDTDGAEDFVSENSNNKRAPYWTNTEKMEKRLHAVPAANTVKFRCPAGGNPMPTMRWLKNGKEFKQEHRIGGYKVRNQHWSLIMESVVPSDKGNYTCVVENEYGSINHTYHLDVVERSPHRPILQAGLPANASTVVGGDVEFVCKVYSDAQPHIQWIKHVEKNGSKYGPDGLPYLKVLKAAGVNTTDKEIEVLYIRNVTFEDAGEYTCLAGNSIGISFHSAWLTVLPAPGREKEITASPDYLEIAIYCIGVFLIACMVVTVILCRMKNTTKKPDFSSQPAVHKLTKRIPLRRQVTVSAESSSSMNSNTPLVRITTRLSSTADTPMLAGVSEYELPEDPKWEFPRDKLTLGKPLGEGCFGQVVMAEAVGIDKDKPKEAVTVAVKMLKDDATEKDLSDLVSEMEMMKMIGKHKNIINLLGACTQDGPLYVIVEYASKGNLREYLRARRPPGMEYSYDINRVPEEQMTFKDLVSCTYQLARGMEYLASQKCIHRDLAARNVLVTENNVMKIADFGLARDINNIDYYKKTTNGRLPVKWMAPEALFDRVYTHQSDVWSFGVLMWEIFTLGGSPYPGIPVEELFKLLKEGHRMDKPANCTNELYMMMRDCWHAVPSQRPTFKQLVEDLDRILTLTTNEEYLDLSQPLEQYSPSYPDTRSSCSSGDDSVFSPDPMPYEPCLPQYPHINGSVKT
[5] abbreviates: read-out: FGFR4 IC50, pre-incubated for 4 hours, ATP 600 uM.

Where two headings read alike, the source gives them in different places. Some results are limits rather than exact numbers.

FGFR1, sequence (P11362 22-822): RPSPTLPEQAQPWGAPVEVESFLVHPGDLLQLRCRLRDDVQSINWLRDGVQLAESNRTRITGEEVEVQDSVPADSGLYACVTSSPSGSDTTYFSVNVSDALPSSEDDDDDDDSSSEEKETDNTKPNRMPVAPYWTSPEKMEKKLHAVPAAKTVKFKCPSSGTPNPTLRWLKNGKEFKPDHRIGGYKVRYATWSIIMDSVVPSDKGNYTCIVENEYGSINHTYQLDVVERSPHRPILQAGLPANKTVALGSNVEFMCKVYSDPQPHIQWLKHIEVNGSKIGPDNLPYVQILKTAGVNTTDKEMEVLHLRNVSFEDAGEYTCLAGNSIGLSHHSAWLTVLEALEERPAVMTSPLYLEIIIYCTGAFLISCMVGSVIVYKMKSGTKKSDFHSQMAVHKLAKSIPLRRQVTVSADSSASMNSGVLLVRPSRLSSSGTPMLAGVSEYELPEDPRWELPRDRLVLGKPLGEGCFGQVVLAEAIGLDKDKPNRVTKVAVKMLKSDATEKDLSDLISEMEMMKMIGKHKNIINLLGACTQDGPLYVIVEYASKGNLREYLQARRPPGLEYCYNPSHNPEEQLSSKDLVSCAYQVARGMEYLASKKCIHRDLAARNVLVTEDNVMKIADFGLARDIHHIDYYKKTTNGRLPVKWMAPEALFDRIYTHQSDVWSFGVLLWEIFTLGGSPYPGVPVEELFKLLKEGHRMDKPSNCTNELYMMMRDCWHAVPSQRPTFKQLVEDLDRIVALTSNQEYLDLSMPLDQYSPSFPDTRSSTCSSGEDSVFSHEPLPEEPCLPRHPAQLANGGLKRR
FGFR4, sequence (P22455 22-802): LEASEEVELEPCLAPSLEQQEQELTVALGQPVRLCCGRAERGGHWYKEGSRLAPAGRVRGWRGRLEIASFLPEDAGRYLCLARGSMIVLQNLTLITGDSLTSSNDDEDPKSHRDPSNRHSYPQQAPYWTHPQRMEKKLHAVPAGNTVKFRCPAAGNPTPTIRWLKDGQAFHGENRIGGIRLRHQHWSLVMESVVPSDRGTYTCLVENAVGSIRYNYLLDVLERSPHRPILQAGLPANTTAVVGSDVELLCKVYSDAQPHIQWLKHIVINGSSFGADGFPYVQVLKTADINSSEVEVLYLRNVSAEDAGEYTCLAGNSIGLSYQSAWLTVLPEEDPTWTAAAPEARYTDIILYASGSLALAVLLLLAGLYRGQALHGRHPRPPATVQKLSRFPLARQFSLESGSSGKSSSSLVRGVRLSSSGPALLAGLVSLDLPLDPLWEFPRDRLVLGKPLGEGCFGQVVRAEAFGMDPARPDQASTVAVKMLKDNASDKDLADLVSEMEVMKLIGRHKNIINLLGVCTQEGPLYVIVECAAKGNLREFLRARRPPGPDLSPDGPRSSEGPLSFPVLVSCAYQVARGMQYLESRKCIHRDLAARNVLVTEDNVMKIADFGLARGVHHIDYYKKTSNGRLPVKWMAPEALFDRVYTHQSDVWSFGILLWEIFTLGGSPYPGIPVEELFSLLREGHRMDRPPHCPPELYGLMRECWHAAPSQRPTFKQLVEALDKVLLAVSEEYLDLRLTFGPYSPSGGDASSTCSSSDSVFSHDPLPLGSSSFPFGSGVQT
FGFR3, sequence (P22607 23-806): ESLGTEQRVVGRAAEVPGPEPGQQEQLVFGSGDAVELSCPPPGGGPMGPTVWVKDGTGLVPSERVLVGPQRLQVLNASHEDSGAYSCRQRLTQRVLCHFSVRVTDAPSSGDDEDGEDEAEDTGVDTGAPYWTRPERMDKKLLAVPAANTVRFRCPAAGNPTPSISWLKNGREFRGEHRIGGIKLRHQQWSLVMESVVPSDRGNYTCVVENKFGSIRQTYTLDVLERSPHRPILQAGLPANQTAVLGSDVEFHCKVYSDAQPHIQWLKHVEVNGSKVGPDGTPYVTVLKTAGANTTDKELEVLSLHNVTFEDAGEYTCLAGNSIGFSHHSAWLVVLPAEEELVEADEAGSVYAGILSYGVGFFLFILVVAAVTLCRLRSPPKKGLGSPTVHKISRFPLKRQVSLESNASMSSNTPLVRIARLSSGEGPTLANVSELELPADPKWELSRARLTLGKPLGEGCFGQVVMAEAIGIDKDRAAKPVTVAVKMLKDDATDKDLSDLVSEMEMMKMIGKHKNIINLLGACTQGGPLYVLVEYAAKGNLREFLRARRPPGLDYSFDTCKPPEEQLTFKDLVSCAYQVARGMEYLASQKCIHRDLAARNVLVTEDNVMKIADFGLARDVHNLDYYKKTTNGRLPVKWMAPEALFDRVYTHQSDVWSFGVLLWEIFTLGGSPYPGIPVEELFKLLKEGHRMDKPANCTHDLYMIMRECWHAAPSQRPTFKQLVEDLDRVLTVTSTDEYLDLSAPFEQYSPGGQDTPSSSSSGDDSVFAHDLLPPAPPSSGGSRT

Turning to `C=CC(=O)NCc1ncc2c(n1)C1(CC1)C(=O)N(c1c(F)c(OC)cc(OC)c1F)C2` [Example 4, N-((6′-(2,6-difluoro-3,5-dimethoxyphenyl)-7′-oxo-6′,7′-dihydro-5′H-spiro[cyclopropane-1,8′-pyrido[4,3-d]pyrimidine]-2′-yl)methyl)acrylamide], the IC50 in test [1] is over 200 nM; in test [2] it was 10 to 30 nM; in test [3] it was over 200 nM; in test [4], over 200 nM.

Turning to `C=CC(=O)NCc1cc2c(cn1)CN(c1c(F)c(OC)cc(OC)c1F)C(=O)N2C1CC(F)(F)C1` [Example 9, N-((3-(2,6-difluoro-3,5-dimethoxyphenyl)-1-(3,3-difluorocyclobutyl)-2-oxo-1,2,3,4-tetrahydropyrido[4,3-d]pyrimidin-7-yl)methyl)acrylamide], the IC50 in test [1] is over 200 nM; in test [2] it was 10 to 30 nM; in test [3], over 200 nM; in test [4], over 200 nM.

Turning to `C=CC(=O)NCc1cc2c(cn1)CN(c1c(F)c(OC)cc(OC)c1F)C(=O)N2c1ccn(C)n1` [Example 7, N-((3-(2,6-difluoro-3,5-dimethoxyphenyl)-1-(1-methyl-1H-pyrazol-3-yl)-2-oxo-1,2,3,4-tetrahydropyrido[4,3-d]pyrimidin-7-yl)methyl)acrylamide], the IC50 is over 200 nM in test [1], 10 to 30 nM in test [2], over 200 nM in test [3] and over 200 nM in test [4].

In the case of `C=CC(=O)NCc1cc2c(cn1)CN(c1c(F)c(OC)cc(OC)c1F)C(=O)N2CC1CCN(C)CC1` [Example 32, N-((3-(2,6-difluoro-3,5-dimethoxyphenyl)-1-((1-methylpiperidin-4-yl)methyl)-2-oxo-1,2,3,4-tetrahydropyrido[4,3-d]pyrimidin-7-yl)methyl)acrylamide], the IC50 is […] in test [1], […] in test [2] (setting [5]), […] in test [3] and […] in test [4].

Consider `C=CC(=O)NCc1cc2c(cn1)CN(c1c(F)c(OC)cc(OC)c1F)C(=O)N2CC1CCN(S(C)(=O)=O)CC1` [Example 35, N-((3-(2,6-difluoro-3,5-dimethoxyphenyl)-1-((1-(methylsulfonyl)piperidin-4-yl)methyl)-2-oxo-1,2,3,4-tetrahydropyrido[4,3-d]pyrimidin-7-yl)methyl)acrylamide], for which the IC50 is over 200 nM in test [1], under 10 nM in test [2] (setting [5]), over 200 nM in test [3] and over 200 nM in test [4].

In the case of `C=CC(=O)NCc1cc2c(cn1)CN(c1c(F)c(OC)cc(OC)c1F)C(=O)N2Cc1cccnc1` [Example 17, N-((3-(2,6-difluoro-3,5-dimethoxyphenyl)-2-oxo-1-(pyridin-3-ylmethyl)-1,2,3,4-tetrahydropyrido[4,3-d]pyrimidin-7-yl)methyl)acrylamide], the IC50 was over 200 nM in test [1], 10 to 30 nM in test [2], over 200 nM in test [3] and over 200 nM in test [4].

For the compound `C=CC(=O)NCc1cc2c(cn1)CN(c1c(F)c(OC)cc(OC)c1F)C(=O)N2C[C@@H]1CCOC1` [Example 31, (S)—N-((3-(2,6-difluoro-3,5-dimethoxyphenyl)-2-oxo-1-((tetrahydrofuran-3-yl)methyl)-1,2,3,4-tetrahydropyrido[4,3-d]pyrimidin-7-yl)methyl)acrylamide], the IC50 in test [1] was over 200 nM; in test [2] (setting [5]) it was under 10 nM; in test [3], over 200 nM; in test [4], over 200 nM.

For the compound `C=CC(=O)NCc1cc2c(cn1)CN(c1c(F)c(OC)cc(OC)c1F)C(=O)N2CCOC` [Example 11, N-((3-(2,6-difluoro-3,5-dimethoxyphenyl)-1-(2-methoxyethyl)-2-oxo-1,2,3,4-tetrahydropyrido[4,3-d]pyrimidin-7-yl)methyl)acrylamide], the IC50 in test [1] is over 200 nM; in test [2] (setting [5]), under 10 nM; in test [3], over 200 nM; in test [4] it was over 200 nM.

On to `C=CC(=O)NCc1cc2c(cn1)CN(c1c(Cl)c(OC)cc(OC)c1Cl)C(=O)N2CC` [Example 36, N-((3-(2,6-dichloro-3,5-dimethoxyphenyl)-1-ethyl-2-oxo-1,2,3,4-tetrahydropyrido[4,3-d]pyrimidin-7-yl)methyl)acrylamide], for which the IC50 is over 200 nM in test [1], under 10 nM in test [2] (setting [5]), over 200 nM in test [3] and over 200 nM in test [4].

Take `C=CC(=O)NCc1cc2c(cn1)CN(c1c(F)c(OC)cc(OC)c1F)C(=O)N2CC#N` [Example 20, N-((1-(cyanomethyl)-3-(2,6-difluoro-3,5-dimethoxyphenyl)-2-oxo-1,2,3,4-tetrahydropyrido[4,3-d]pyrimidin-7-yl)methyl)acrylamide]: the IC50 in test [1] is over 200 nM; in test [2] (setting [5]), under 10 nM; in test [3], over 200 nM; in test [4], over 200 nM.

In the case of `C=CC(=O)NCc1cc2c(cn1)CN(c1c(F)c(OC)cc(OC)c1F)C(=O)N2C1CC1` [Example 10, N-((1-cyclopropyl-3-(2,6-difluoro-3,5-dimethoxyphenyl)-2-oxo-1,2,3,4-tetrahydropyrido[4,3-d]pyrimidin-7-yl)methyl)acrylamide], the IC50 in test [1] was over 200 nM; in test [2], 10 to 30 nM; in test [3], over 200 nM; in test [4] it was over 200 nM.

As to `C=CC(=O)NCc1cc2c(cn1)CN(c1c(F)c(OC)cc(OC)c1F)C(=O)N2[C@H]1CCOC1` [Example 8, (S)—N-((3-(2,6-difluoro-3,5-dimethoxyphenyl)-2-oxo-1-(tetrahydrofuran-3-yl)-1,2,3,4-tetrahydropyrido[4,3-d]pyrimidin-7-yl)methyl)acrylamide], the IC50 was over 200 nM in test [1], under 10 nM in test [2] (setting [5]), over 200 nM in test [3] and over 200 nM in test [4].

Turning to `C=CC(=O)NCc1cc2c(cn1)CN(c1c(F)c(OC)cc(OC)c1F)C(=O)N2c1cccnc1` [Example 3, N-((3-(2,6-difluoro-3,5-dimethoxyphenyl)-2-oxo-1-(pyridin-3-yl)-1,2,3,4-tetrahydropyrido[4,3-d]pyrimidin-7-yl)methyl)acrylamide], the IC50 was over 200 nM in test [1], 10 to 30 nM in test [2], over 200 nM in test [3] and over 200 nM in test [4].

For `C=CC(=O)NCc1cc2c(cn1)CN(c1c(F)c(OC)cc(OC)c1F)C(=O)N2c1ccccc1` [Example 6, N-((3-(2,6-difluoro-3,5-dimethoxyphenyl)-2-oxo-1-phenyl-1,2,3,4-tetrahydropyrido[4,3-d]pyrimidin-7-yl)methyl)acrylamide], the IC50 in test [1] was over 200 nM; in test [2] it was 10 to 30 nM; in test [3], over 200 nM; in test [4], over 200 nM.

On to `C=CC(=O)NCc1cc2c(cn1)CN(c1c(F)c(OC)cc(OC)c1F)C(=O)N2CCC` [Example 12, N-((3-(2,6-difluoro-3,5-dimethoxyphenyl)-2-oxo-1-propyl-1,2,3,4-tetrahydropyrido[4,3-d]pyrimidin-7-yl)methyl)acrylamide], for which the IC50 in test [1] is over 200 nM; in test [2] (setting [5]), under 10 nM; in test [3], over 200 nM; in test [4] it was over 200 nM.

Broadly, the IC50 is the concentration that gives 50% inhibition.

For the origin of these results see patent US9890156B2, “Bicyclic heterocycles as FGFR4 inhibitors” (Incyte Corporation, priority 2015, dated 2018).
